Read-outs that look alike come from different tables or passages of the source.
Experiments:
[1] = molecular target: T1, human cannabinoid CB2 receptor (Homo sapiens, UniProt P34972); experiment: In vitro affinity for cannabinoid-CB2 receptors ([3H]CP-55,940 radioligand binding, CHO cell membranes)
T1 construct: expressed in transfected cells; host or cells: Chinese hamster ovary (CHO) cells, membrane preparation
Description: (§1) The affinity of the compounds of the invention for cannabinoid CB2 receptors can be determined using membrane preparations of Chinese hamster ovary (CHO) cells in which the human cannabinoid CB2 receptor is stably transfected in conjunction with [^3H]CP-55,940 as radioligand. After incubation of a freshly prepared cell membrane preparation with the [^3H]-ligand, with or without addition of compounds of the invention, separation of bound and free ligand is performed by filtration over glassfiber filters. Radioactivity on the filter is measured by liquid scintillation counting.
The affinity of the compounds of the invention for cannabinoid CB2 receptors was determined as described above. From the binding affinity measured for a given compound of formula (I), one can estimate a theoretical lowest effective dose. At a concentration of the compound equal to twice the measured Ki-value, […] of the cannabinoid CB2 receptors likely will be occupied by the compound. Converting that concentration to mg of compound per kg of patient yields a theoretical lowest effective dose, assuming ideal bioavailability. Pharmacokinetic, pharmacodynamic, and other considerations may alter the dose actually administered to a higher or lower value. The dosage expediently administered is 0.001-1000 mg/kg, such as 0.1-100 mg/kg of patient's bodyweight.

[2] = molecular target: T2, human cannabinoid CB1 receptor (Homo sapiens, UniProt P21554); experiment: In vitro affinity for cannabinoid-CB1 receptors ([3H]CP-55,940 radioligand binding, CHO cell membranes)
T2 construct: expressed in transfected cells; host or cells: Chinese hamster ovary (CHO) cells, membrane preparation
T2 sequence (P21554 whole entry): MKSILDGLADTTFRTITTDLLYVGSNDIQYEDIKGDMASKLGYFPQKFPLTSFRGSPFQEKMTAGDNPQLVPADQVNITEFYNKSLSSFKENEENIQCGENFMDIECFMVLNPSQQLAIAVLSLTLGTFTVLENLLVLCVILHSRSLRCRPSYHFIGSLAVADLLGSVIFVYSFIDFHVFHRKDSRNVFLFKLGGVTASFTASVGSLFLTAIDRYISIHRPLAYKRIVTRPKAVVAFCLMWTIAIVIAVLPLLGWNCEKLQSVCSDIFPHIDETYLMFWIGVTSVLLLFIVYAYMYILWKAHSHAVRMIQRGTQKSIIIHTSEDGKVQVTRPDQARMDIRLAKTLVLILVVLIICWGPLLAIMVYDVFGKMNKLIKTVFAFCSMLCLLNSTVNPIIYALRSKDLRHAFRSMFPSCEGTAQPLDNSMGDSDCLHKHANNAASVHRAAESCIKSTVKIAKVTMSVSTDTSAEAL
Description: as §1, with “CB1” for “CB2”

[3] = membranes of CHO cells stably transfected with human CB2 receptor, [3H]CP-55,940 radioligand, read-out: Human cannabinoid-CB2 receptor In vitro affinity - pKi value (converted)

T1 sequence (P34972 whole entry): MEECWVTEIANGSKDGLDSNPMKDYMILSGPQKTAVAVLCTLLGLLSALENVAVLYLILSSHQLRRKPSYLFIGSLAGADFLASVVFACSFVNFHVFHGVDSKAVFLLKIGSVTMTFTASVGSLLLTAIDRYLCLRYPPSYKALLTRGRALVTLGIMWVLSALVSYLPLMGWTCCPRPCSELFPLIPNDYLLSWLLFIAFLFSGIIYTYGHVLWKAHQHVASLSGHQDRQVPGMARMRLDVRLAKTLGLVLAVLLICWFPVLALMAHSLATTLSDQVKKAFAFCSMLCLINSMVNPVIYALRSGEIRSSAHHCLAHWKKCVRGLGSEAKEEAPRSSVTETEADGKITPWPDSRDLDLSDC

Row | Compound | melting point [°C] | other results
1 | Cc1c(C(=O)NC23CC4CC(CC(C4)C2)C3)ncn1Cc1ccccc1 | 182 to 184 | –
2 | Cc1c(C(=O)N[C@H]2C(C)(C)[C@H]3CC[C@]2(C)C3)ncn1CCCNS(C)(=O)=O | 149 to 156 | –
3 | O=C(NC12CC3CC(CC(C3)C1)C2)c1nc(Br)n(-c2ccccc2)c1Br | 228 to 231 | –
4 | Cc1c(C(=O)Nc2cccc3ccccc23)ncn1-c1ccccc1 | 167 to 169 | –
5 | O=C(NC12CC3CC(CC(C3)C1)C2)c1nc(Cl)n(-c2ccccc2)c1Cl | 172 to 173 | –
6 | Cc1nc(C(=O)Nc2cccc3ccccc23)c(C)n1-c1ccccc1.Cl | 177 to 179 | –
7 | Cc1nc(C(=O)N[C@@H]2C(C)(C)C3CC[C@@]2(C)C3)c(C)n1-c1ccccc1 | 130 to 132 | –
8 | Cc1c(C(=O)N[C@H]2C(C)(C)[C@H]3CC[C@]2(C)C3)ncn1-c1ccccc1 | 149 to 152 | –
9 | Cc1nc(C(=O)NC23CC4CC(CC2C4)C3)c(C)n1-c1ccccc1 | 147 to 150 | –
10 | Cc1nc(C(=O)Nc2ccnc3cc(C(F)(F)F)ccc23)c(C)n1-c1ccccc1 | 198.5 | –
11 | Cc1nc(C(=O)Nc2ccc(C#N)c3ccccc23)c(C)n1-c1ccccc1 | 241.5 | –
12 | CCCCc1c(C(=O)NC23CC4CC(CC(C4)C2)C3)nc(C)n1-c1ccccc1 | 171 to 172 | –
13 | Cc1nc(C(=O)NC23CC4CC(CC(C4)C2)C3)c(C)n1-c1ccc2c(c1)OCCO2.Cl | 221 to 223 | –
14 | Cc1nc(C(=O)NN2CCCCC2)c(C)n1-c1ccccc1 | 117 to 118 | –
15 | CCc1nc(C(=O)Nc2cccc3ccccc23)c(CC)n1-c1ccccc1 | 123 to 125 | –
16 | COC(=O)[C@H](Cc1ccccc1)NC(=O)c1cn(CCOc2ccccc2)cn1 [BMS-I, reference compound] | – | Ki [1]: 0.398 µM
17 | COC(=O)[C@H](Cc1ccccc1)NC(=O)c1cn(CCN2CCOCC2)cn1 [BMS-II, reference compound] | – | Ki [1]: > 1 µM
18 | CCCCCn1cnc(C(=O)N[C@@H](Cc2ccccc2)C(=O)OC)c1 [BMS-III, reference compound] | – | Ki [1]: 0.0631 µM
19 | Cc1c(C(=O)NC23CC4CC(CC(C4)C2)C3)ncn1-c1ccccc1 [Compound 2] | 214 to 219 | –
20 | Cc1c(C(=O)N[C@H]2C[C@H]3CC[C@]2(C)C3(C)C)ncn1-c1ccccc1 [Compound 4] | 209 to 212 | –
21 | O=C(NC12CC3CC(CC(C3)C1)C2)c1cn(-c2ccccc2)cn1 [Compound 6] | 198 to 200 | –

Row | Compound | melting point [°C] | other results
22 | O=C(NC1C2CC3CC(C2)CC1C3)c1cn(-c2ccccc2)cn1 (stereo not drawn) [Compound 7] | 232 to 234 | –
23 | Cc1nc(C(=O)NC23CC4CC(CC(C4)C2)C3)cn1-c1ccccc1 [Compound 8, N-adamantyl-2-methyl-1-phenyl-1H-imidazole-4-carboxamide] | 207 to 210 | –
24 | Cc1nc(C(=O)NCC2CCC3C(C)(C)C34CC24)cn1-c1ccccc1 (stereo not drawn) [Compound 9] | 124 to 127 | –
25 | Cc1nc(C(=O)NC23CC4CC(CC(C4)C2)C3)c(C)n1-c1ccccc1 [Compound 11] | – | Ki [1]: 0.001 µM; Ki [2]: > 1 µM
26 | COc1cccc(-n2c(C)nc(C(=O)NCC3CCC4C(C)(C)C45CC35)c2C)c1 (stereo not drawn) [Compound 12] | 153 to 155 | –
27 | Cc1nc(C(=O)NC23CC4CC(CC(C4)C2)C3)c(C)n1C1CCCCC1 [Compound 14] | – | Ki [1]: 0.00631 µM; Ki [2]: > 1 µM
28 | CCc1c(C(=O)NC23CC4CC(CC(C4)C2)C3)nc(C)n1-c1ccccc1 [Compound 15] | – | Ki [1]: < 0.001 µM; Ki [2]: 0.631 µM
29 | CCc1nc(C(=O)NC23CC4CC(CC(C4)C2)C3)cn1-c1ccccc1 [Compound 20] | – | Ki [1]: 0.01 µM; Ki [2]: 0.251 µM
30 | Cc1c(C(=O)NCC2CCC3C(C)(C)C34CC24)ncn1CCCNS(C)(=O)=O (stereo not drawn) [Compound 22] | 84 to 108 | –
31 | CCCCCCC(=O)c1nc(C)n(-c2ccccc2)c1C [Compound 26] | – | Ki [1, 3]: 0.158 µM
32 | O=C(NC12CC3CC(CC(C3)C1)C2)c1ncn(-c2ccccc2)c1Br [Compound 27, N-(adamant-1-yl)-5-bromo-1-phenyl-1H-imidazole-4-carboxamide] | 229 to 232 | –
33 | Cc1nc(C(=O)NC23CC4CC(CC(C4)C2)C3)c(Br)n1-c1ccccc1 [Compound 33A] | – | Ki [1]: 0.00631 µM; Ki ([2]; membranes of CHO cells stably transfected with human CB1 receptor, [3H]CP-55,940 radioligand, read-out: Human cannabinoid-CB1 receptor In vitro affinity - pKi (converted)): 0.794 µM
34 | Cc1nc(C(=O)NC23CC4CC(CC(C4)C2)C3)c(Cl)n1-c1ccccc1 [Compound 33] | – | Ki [1]: 0.00794 µM
35 | Cc1nc(C(=O)NCc2ccccc2C(F)(F)F)c(C)n1-c1ccccc1 [Compound 44] | 76 to 79 | Ki [1, 3]: 0.00158 µM
36 | Cc1nc(C(=O)Nc2cccc3ncccc23)c(C)n1-c1ccccc1 [Compound 46] | 139 to 141 | –
37 | Cc1nc(C(=O)NC23CC4CC(CC(O)(C4)C2)C3)c(C)n1-c1ccccc1 [Compound 48, N-(3 hydroxyadamant-1-yl)-2,5-dimethyl-1-phenyl-1H-imidazole-4-carboxamide] | 215 to 220 | –
38 | Cc1nc(C(=O)NC2C3CC4CC(C3)CC2C4)c(C)n1-c1ccccc1 (stereo not drawn) [Compound 49] | 245 to 247 | Ki [1]: 0.00251 µM; Ki [2]: > 1 µM
39 | Cc1c(C(=O)NC23CC4CC(CC(C4)C2)C3)nc(C(F)(F)F)n1-c1ccccc1 [Compound 64] | 170 to 172 | –
40 | Cc1nc(C(=O)Nc2cccc(Cl)c2Cl)c(C)n1-c1ccccc1 [Compound 65, N-(2,3-dichlorophenyl)-2,5-dimethyl-1-phenyl-1H-imidazole-4-carboxamide] | 127 to 129 | –
41 | Cc1nc(C(=O)NC2CCCCCCC2)c(C)n1-c1ccccc1 [Compound 72] | – | Ki [1]: 0.00501 µM
42 | N-[(1R,2S,5R)-rel-6,6-dimethylbicyclo[3.1.1]heptan-2-methyl]-5-methyl-1-phenyl-1H-imidazole-4-carboxamide [Compound 1] | – | Human cannabinoid-CB2 receptor In vitro affinity - pKi value ([1]; membranes of CHO cells stably transfected with human CB2 receptor, [3H]CP-55,940 radioligand): 7.3; Human cannabinoid-CB1 receptor In vitro affinity - pKi ([2]; membranes of CHO cells stably transfected with human CB1 receptor, [3H]CP-55,940 radioligand): <6.0

— patent publication US8937184B2, “1H-imidazole derivatives as cannabinoid CB2 receptor modulators” (Abbvie B.V., priority 2005, dated 2015)
